# Results as given in US11814364B2, “Pyridine N-oxide derivatives useful as factor XIa inhibitors” (Janssen Pharmaceutica NV, priority 2021, dated 2023).
# Target: human plasma kallikrein (Homo sapiens, UniProt P03952)
# Assay: Kallikrein inhibition FLINT assay with quenched AMC peptide substrate Z-Gly-Pro-Arg-AMC (end point EP or kinetic KIN reads)
# Assay type: biochemical
# Details: kinetic reads at 5 min intervals over 30 min; read-out: Kallikrein (KIN) IC50
# Outline: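 Enzyme and compound were preincubated 30 min before adding 50 μM AMC substrate in pH 7.5 Tris/NaCl/CaCl2/BSA/CHAPS buffer. AMC release was read at 30 min endpoint or every 5 min.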
# Chain of human plasma kallikrein (P03952 391-638 limits assumed): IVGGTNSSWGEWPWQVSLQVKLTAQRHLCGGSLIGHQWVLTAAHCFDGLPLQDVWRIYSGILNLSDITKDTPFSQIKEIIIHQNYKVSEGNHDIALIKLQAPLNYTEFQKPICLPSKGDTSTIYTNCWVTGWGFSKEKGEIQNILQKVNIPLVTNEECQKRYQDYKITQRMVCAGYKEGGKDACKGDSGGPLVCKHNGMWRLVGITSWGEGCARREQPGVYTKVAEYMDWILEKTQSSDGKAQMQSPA
# Chain of human plasma kallikrein (P03952 20-390 partner limits assumed): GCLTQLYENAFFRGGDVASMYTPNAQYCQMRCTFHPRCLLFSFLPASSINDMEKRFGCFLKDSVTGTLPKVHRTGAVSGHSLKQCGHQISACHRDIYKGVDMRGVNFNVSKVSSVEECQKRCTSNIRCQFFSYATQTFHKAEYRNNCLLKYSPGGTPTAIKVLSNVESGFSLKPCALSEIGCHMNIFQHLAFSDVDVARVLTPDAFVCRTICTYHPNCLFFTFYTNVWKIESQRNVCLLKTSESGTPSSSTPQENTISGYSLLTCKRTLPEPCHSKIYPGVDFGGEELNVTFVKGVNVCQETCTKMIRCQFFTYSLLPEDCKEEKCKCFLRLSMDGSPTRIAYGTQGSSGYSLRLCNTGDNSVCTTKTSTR
row,Structure (SMILES),IC50
1,Cc1ncsc1-c1cnn(C(CC2CC2)c2ccc(-c3c(-n4cnnn4)ccc(Cl)c3F)c[n+]2[O-])c1 (stereo not shown) [Example P488],92.5 nM
2,[2H]C([2H])([2H])Nc1ccc(-c2cnn(C(CCOC([2H])([2H])[2H])c3ccc(-c4c(-n5cnnn5)ccc(Cl)c4F)c[n+]3[O-])c2)cc1 (stereo not shown) [Example P278],110 nM
3,N#Cc1cc(-c2cnn(C(Cn3ccccc3=O)c3ccc(-c4c(-n5cnnn5)ccc(Cl)c4F)c[n+]3[O-])c2)ccn1 (stereo not shown) [Example P459],105 nM
4,CCC(c1ccc(-c2c(-n3cnnn3)ccc(Cl)c2F)c[n+]1[O-])n1cc(-c2ccc(NC(=O)OC)cc2)cn1 (stereo not shown) [Example P153],108 nM
5,"COC(=O)N(C)CC(c1ccc(-c2c(-n3cnnn3)ccc(Cl)c2F)c[n+]1[O-])n1cc(-c2ccnc(F)c2)cn1 (single isomer, unassigned) [Example P355]",933 nM
6,"NC(=O)c1ccc(-c2cnn(C(Cc3ccn(C(F)F)n3)c3ccc(-c4c(-n5cc(C(F)(F)F)nn5)ccc(Cl)c4F)c[n+]3[O-])c2)cc1F (single isomer, unassigned) [Example P891]",536 nM
7,Cn1ncnc1-c1cnn(C(Cc2ncco2)c2ccc(-c3c(-n4cc(C(F)(F)F)nn4)ccc(Cl)c3F)c[n+]2[O-])c1 (stereo not shown) [Example P925],187 nM
8,[O-][n+]1cc(-c2c(-n3cnnn3)ccc(Cl)c2F)ccc1[C@@H](Cc1ccc(C(F)F)cc1)n1cc(-c2cnnn2C(F)F)cn1 [Example P731],64.9 nM
9,COCC[C@H](c1ccc(-c2c(-n3cnnn3)ccc(Cl)c2F)c[n+]1[O-])n1cc(-c2c(Cl)cnn2C(F)F)cn1 [Example P623],217 nM
10,CC1CC1CC(c1ccc(-c2c(-n3cnnn3)ccc(Cl)c2F)c[n+]1[O-])n1cc(-c2ncnn2C(F)F)cn1 (stereo not shown) [Example P767],> 100 nM
11,CCOC(=O)C1CC1CC(c1ccc(-c2cc(Cl)ccc2-n2cnnn2)c[n+]1[O-])n1cc(-c2ccc(C(=O)O)cc2)cn1 (stereo not shown) [Example P67],362 nM
12,CN(CC(c1ccc(-c2c(-n3cnnn3)ccc(Cl)c2F)c[n+]1[O-])n1cc(-c2cc[n+]([O-])cc2)cn1)C(=O)Cc1ccccc1 (stereo not shown) [Example P345],152 nM
13,[O-][n+]1cc(-c2c(-n3cnnn3)ccc(Cl)c2F)ccc1C(CC1CC1)n1cc(-c2ccnnc2)cn1 (stereo not shown) [Example P397],397 nM
14,COc1cc(C(CC2CC2)n2cc(-c3ccc(N)nc3F)cn2)[n+]([O-])cc1-c1c(-c2cnco2)ccc(Cl)c1F (stereo not shown) [Example P182],55.2 nM
15,Cn1ncnc1-c1cnn(C(CCOC(F)F)c2ccc(-c3c(N)ccc(Cl)c3F)c[n+]2[O-])c1 (stereo not shown) [Example Q45],231 nM
16,"[O-][n+]1cc(F)c(-c2cnn(C(CC3CC3)c3ccc(-c4c(-n5cnnn5)ccc(Cl)c4F)c[n+]3[O-])c2)c(Cl)c1 (single isomer, unassigned) [Example P862]",148 nM

row,Structure (SMILES),IC50
1,"Nc1cnc(-c2cnn(C(CCOC(F)F)c3ccc(-c4c(-n5cc(C(F)(F)F)nn5)ccc(Cl)c4F)c[n+]3[O-])c2)c(F)n1 (single isomer, unassigned) [Example P833]",62.7 nM
2,COC(=O)N1CCCC(c2cnn(C(CC3CC3)c3ccc(-c4c(-n5cnnn5)ccc(Cl)c4F)c[n+]3[O-])c2)C1 (stereo not shown) [Example P108],649 nM
3,"NC(=O)c1ccc(-c2cnn(C(CCOC(F)F)c3ccc(-c4c(-n5cc(Cl)nn5)ccc(Cl)c4F)c[n+]3[O-])c2)cc1 (single isomer, unassigned) [Example P895]",702 nM
4,"[O-][n+]1cc(-c2c(-n3cnnn3)ccc(Cl)c2F)ccc1C(Cn1cc(-c2ccccn2)cn1)n1cc(-c2ccccn2)cn1 (single isomer, unassigned) [Example P516]",139 nM
5,COC(=O)Nc1ccc(-c2cnn(C(CC3CCCCC3)c3ccc(-c4c(-n5cnnn5)ccc(Cl)c4F)c[n+]3[O-])c2)cc1 (stereo not shown) [Example P102],72.2 nM
6,"O=c1ccccn1CC(c1ccc(-c2c(-n3cnnn3)ccc(Cl)c2F)c[n+]1[O-])n1cc(-c2cc[n+]([O-])c(C(F)F)c2)cn1 (single isomer, unassigned) [Example P373]",161 nM
7,CN(C)C(=O)N(C)CC(c1ccc(-c2c(-n3cnnn3)ccc(Cl)c2F)c[n+]1[O-])n1cc(-c2ccnc(C(F)(F)F)c2)cn1 (stereo not shown) [Example P437],113 nM
8,Cn1nnc(-c2cnn([C@H](CCOC(F)F)c3ccc(-c4c(-n5cc(Cl)nn5)ccc(Cl)c4F)c[n+]3[O-])c2)c1F [Example P705],210 nM
9,[O-][n+]1cc(-c2cc(Cl)ccc2-n2cnnn2)ccc1C(Cc1ccc(Cl)cc1)n1cc(-c2ccc(OC(F)(F)F)cc2)cn1 (stereo not shown) [Example P150],397 nM
10,COC(C)(C)C[C@H](c1ccc(-c2c(-n3cnnn3)ccc(Cl)c2F)c[n+]1[O-])n1cc(-c2ccnn2C(F)F)cn1 [Example P646],506 nM
11,COC(=O)Nc1ccc(-c2cnn(C(CC3CC3C(=O)N3CCCCC3)c3ccc(-c4c(-n5cnnn5)ccc(Cl)c4F)c[n+]3[O-])c2)cc1 (stereo not shown) [Example P231],366 nM
12,NC(=O)c1ccc(-c2cnn(C(CC3CC3)c3ccc(-c4c(-n5cc(C(F)(F)F)nn5)ccc(Cl)c4F)c[n+]3[O-])c2)s1 (stereo not shown) [Example P904],123 nM
13,"COC(=O)Nc1ccc(-c2cnn(C(CC(C)C)c3ccc(-c4c(-n5cnnn5)ccc(Cl)c4F)c[n+]3[O-])c2)cc1 (single isomer, unassigned) [Example P181]",67.7 nM
14,Cn1cncc1-c1cnn(C(CC2CC2)c2ccc(-c3c(-n4cnnn4)ccc(Cl)c3F)c[n+]2[O-])c1 (stereo not shown) [Example P457],554 nM
15,"NC(=O)c1ccc(-c2cnn(C(CC3CC3)c3ccc(-c4c(-n5cnnn5)ccc(Cl)c4F)c[n+]3[O-])c2)cc1F (single isomer, unassigned) [Example P946]",834 nM

# These reach a lower IC50. Values come first.
row,IC50,Structure (SMILES)
1,0.4 nM,"COC(=O)Nc1ccc(-c2cnn(C(Cc3ccn(C)n3)c3ccc(-c4c(-n5cnnn5)ccc(Cl)c4F)c[n+]3[O-])c2)cc1 (single isomer, unassigned) [Example P328]"
2,2.7 nM,"NC(=O)c1ccc(-c2cnn(C(CCOC(F)F)c3ccc(-c4c(-n5cc(Cl)nn5)ccc(Cl)c4F)c[n+]3[O-])c2)cc1F (single isomer, unassigned) [Example P875]"
3,25.5 nM,CC(C)(C)c1cc(-c2cnn(C(Cn3cc(F)cn3)c3ccc(-c4c(-n5cnnn5)ccc(Cl)c4F)c[n+]3[O-])c2)ccn1 (stereo not shown) [Example P395]
4,2.5 nM,NC(=O)c1ccc(-c2cnn(C(Cc3ccn(C(F)F)n3)c3ccc(-c4c(-n5cc(Cl)nn5)ccc(Cl)c4F)c[n+]3[O-])c2)cc1F (stereo not shown) [Example P894]
5,2.2 nM,"O=C(O)c1ccc(-c2cnn(C(Cc3ccn(C(F)F)n3)c3ccc(-c4c(-n5cc(C(F)(F)F)nn5)ccc(Cl)c4F)c[n+]3[O-])c2)cc1 (single isomer, unassigned) [Example P900]"
6,31.8 nM,"[O-][n+]1cc(-c2c(-n3cnnn3)ccc(Cl)c2F)ccc1C(CC1CC1)n1cc(-c2ccncc2)cn1 (single isomer, unassigned) [Example P262]"
7,6.4 nM,[O-][n+]1cc(-c2c(-n3cnnn3)ccc(Cl)c2F)ccc1C(Cn1cc2c(n1)COCC2)n1cc(-c2ccnc(C(F)(F)F)c2)cn1 (stereo not shown) [Example P463]
8,8.5 nM,Cn1nnc(F)c1-c1cnn([C@H](CCOC(F)F)c2ccc(-c3c(-n4cnnn4)ccc(Cl)c3F)c[n+]2[O-])c1 [Example P724]
9,5.8 nM,"O=C(O)c1ccc(-c2cnn(C(CCOC(F)F)c3ccc(-c4c(-n5cc(C(F)(F)F)nn5)ccc(Cl)c4F)c[n+]3[O-])c2)cc1F (single isomer, unassigned) [Example P887]"
10,28.5 nM,COC(=O)Nc1ccc(-c2cnn(C(Cc3ccccc3OC)c3ccc(-c4c(-n5cnnn5)ccc(Cl)c4F)c[n+]3[O-])c2)cc1 (stereo not shown) [Example P164]
11,4.1 nM,NC(=O)COc1ccc(CC(c2ccc(-c3cc(Cl)ccc3-n3cnnn3)c[n+]2[O-])n2cc(-c3ccc(C(=O)O)cc3)cn2)cc1 (stereo not shown) [Example P138]
12,48.9 nM,Cn1nnc(F)c1-c1cnn(C(CC2CC2)c2ccc(-c3c(-n4cnnn4)ccc(Cl)c3F)c[n+]2[O-])c1 (stereo not shown) [Example P744]
13,23 nM,CN(CC(c1ccc(-c2c(-n3cnnn3)ccc(Cl)c2F)c[n+]1[O-])n1cc(-c2ccncc2)cn1)OC(F)(F)F (stereo not shown) [Example P323]
14,52.9 nM,Cc1cc(C(N)=O)sc1-c1cnn(C(CC2CC2)c2ccc(-c3c(-n4cnnn4)ccc(Cl)c3F)c[n+]2[O-])c1 (stereo not shown) [Example P960]
15,28.6 nM,[O-][n+]1cc(-c2c(-n3cnnn3)ccc(Cl)c2F)ccc1[C@@H](CCOC(F)F)n1cc(-c2c(Cl)nnn2C(F)F)cn1 [Example P714]
16,13.9 nM,COC(=O)Nc1ccc(-c2cnn(C(CC3CCCCO3)c3ccc(-c4c(-n5cnnn5)ccc(Cl)c4F)c[n+]3[O-])c2)cc1 (stereo not shown) [Example P220]
17,12.5 nM,O=C(c1cnn(CC(c2ccc(-c3c(-n4cnnn4)ccc(Cl)c3F)c[n+]2[O-])n2cc(-c3ccncc3)cn2)c1)N1CCCCC1 (stereo not shown) [Example P291]
18,5.8 nM,COc1cc(C(CC2CC2C(N)=O)n2cc(-c3ccc(N)nc3C)cn2)[n+]([O-])cc1-c1c(-n2cnnn2)ccc(Cl)c1F (stereo not shown) [Example P247]
19,20.5 nM,"NC(=O)c1ccc(-c2cnn(C(Cc3ccn(C(F)F)n3)c3ccc(-c4c(-n5cc(Cl)nn5)ccc(Cl)c4F)c[n+]3[O-])c2)cc1F (single isomer, unassigned) [Example P893]"
20,51.7 nM,Nc1ccc(-c2cnn(C(Cn3cc(CC(=O)N4CCCCC4)cn3)c3ccc(-c4c(-n5cnnn5)ccc(Cl)c4F)c[n+]3[O-])c2)c(F)n1 (stereo not shown) [Example P471]
21,47.9 nM,Cn1cc2cc(-c3cnn(C(CC4CC4)c4ccc(-c5c(-n6cnnn6)ccc(Cl)c5F)c[n+]4[O-])c3)ccc2n1 (stereo not shown) [Example P326]
22,3.3 nM,"Nc1ccc(-c2cnn(C(Cn3cc(F)cn3)c3ccc(-c4c(-n5cnnn5)ccc(Cl)c4F)c[n+]3[O-])c2)c(F)n1 (single isomer, unassigned) [Example P416]"
23,1.4 nM,"[O-][n+]1cc(-c2c(-n3cnnn3)ccc(Cl)c2F)ccc1C(Cc1ccc(F)cc1)n1cc(-c2ccncc2)cn1 (single isomer, unassigned) [Example P235]"
24,13.3 nM,COC(=O)Nc1ccc(-c2cnn(C(Cn3cc(F)cn3)c3ccc(-c4c(-n5cnnn5)ccc(Cl)c4F)c[n+]3[O-])c2)cc1 (stereo not shown) [Example P277]
